These results are taken from paper PMC1262763, “Evolutionary selection across the nuclear hormone receptor superfamily with a focus on the NR1I subfamily (vitamin D, pregnane X, and constitutive androstane receptors)” (Nuclear Receptor, 2005).

The target in data set [1] is T1, human PXR (Homo sapiens, UniProt O75469).
T1 construct: gene NR1I2; full-length receptor (DBD and LBD), transfected in HepG2-NTCP cells with CYP3A4-PXRE-Luc reporter
T1 sequence (O75469 1-434): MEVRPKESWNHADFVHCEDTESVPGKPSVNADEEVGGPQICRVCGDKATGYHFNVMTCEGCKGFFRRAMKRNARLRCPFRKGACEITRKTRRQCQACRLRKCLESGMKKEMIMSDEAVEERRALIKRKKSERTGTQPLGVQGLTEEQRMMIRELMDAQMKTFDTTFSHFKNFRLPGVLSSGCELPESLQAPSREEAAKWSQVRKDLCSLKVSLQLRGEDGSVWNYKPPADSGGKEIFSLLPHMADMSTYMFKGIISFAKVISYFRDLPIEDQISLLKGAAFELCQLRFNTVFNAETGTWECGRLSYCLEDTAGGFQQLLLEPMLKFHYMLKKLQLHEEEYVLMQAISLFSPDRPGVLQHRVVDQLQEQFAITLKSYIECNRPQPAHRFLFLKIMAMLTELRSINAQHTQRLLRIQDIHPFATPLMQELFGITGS
Kind of data set: luciferase reporter transactivation, HepG2-NTCP cells. It is filed as cell-based. The following applies: concentration-response curve, normalized to […] rifampicin. Background: In a reporter assay the amount or activity of a reporter protein is the signal.

For data set [2], the target named is human VDR (Homo sapiens, UniProt P11473). The following applies: maximal activator […] calcitriol.
Sequence of human VDR (P11473 whole entry): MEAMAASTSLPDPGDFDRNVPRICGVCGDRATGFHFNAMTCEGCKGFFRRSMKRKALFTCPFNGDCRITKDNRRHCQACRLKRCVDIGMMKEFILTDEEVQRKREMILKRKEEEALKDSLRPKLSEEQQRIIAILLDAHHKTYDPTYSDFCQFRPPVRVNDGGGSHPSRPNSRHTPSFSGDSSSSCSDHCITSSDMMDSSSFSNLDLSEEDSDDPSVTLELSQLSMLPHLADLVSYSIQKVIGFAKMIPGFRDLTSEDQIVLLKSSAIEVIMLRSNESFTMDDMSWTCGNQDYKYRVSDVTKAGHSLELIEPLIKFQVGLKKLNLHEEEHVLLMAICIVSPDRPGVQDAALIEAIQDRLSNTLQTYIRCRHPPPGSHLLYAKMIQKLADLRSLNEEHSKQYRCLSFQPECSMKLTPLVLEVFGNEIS
Data set [3] addresses T2, zebrafish PXR (Danio rerio, UniProt A5WYG8).
T2 construct: gene nr1i2; LBD only, fused to GAL4 (tk-UAS-Luc reporter), transfected in HepG2-NTCP cells
T2 sequence (A5WYG8 144-430 limits assumed): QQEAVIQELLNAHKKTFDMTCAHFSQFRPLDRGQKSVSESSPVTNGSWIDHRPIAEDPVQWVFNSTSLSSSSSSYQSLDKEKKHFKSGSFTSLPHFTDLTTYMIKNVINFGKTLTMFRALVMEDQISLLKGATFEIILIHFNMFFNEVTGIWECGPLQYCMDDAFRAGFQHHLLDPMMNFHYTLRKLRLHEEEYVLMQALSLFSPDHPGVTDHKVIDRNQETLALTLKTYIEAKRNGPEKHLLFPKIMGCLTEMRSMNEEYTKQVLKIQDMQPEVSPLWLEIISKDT
Kind of data set: GAL4-LBD luciferase reporter transactivation, HepG2-NTCP cells. It is filed as cell-based. The following applies: concentration-response curve; normalized to […]α-androstan-3α-ol.

The target of data set [4] is T3, Xenopus laevis BXRα (Xenopus laevis, UniProt Q91839).
T3 construct: gene nr1i2.L; LBD only, fused to GAL4 (tk-UAS-Luc reporter), transfected in HepG2-NTCP cells
T3 sequence (Q91839 141-386 limits assumed): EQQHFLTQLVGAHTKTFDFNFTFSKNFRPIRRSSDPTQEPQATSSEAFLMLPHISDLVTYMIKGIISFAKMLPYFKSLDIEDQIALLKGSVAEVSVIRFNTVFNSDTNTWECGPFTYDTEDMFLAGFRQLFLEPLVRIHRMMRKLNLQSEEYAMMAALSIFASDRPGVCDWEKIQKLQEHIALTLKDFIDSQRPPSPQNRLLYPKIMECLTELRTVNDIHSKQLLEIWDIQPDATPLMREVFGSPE
Described as above. It is filed as cell-based. The following applies: concentration-response curve; normalized to […] n-butyl-p-aminobenzoate.

The structures appear in SMILES notation. Counter-ions that a name gives are not always drawn.

As to `C[C@H](CCCOS(=O)(=O)O)[C@H]1CC[C@H]2[C@@H]3[C@H](O)C[C@H]4C[C@H](O)CC[C@]4(C)[C@H]3C[C@H](O)[C@]12C` [petromyzonol sulfate], the “luciferase reporter transactivation, HepG2-NTCP cells” value in data set [1] (OATP co-transfected) was “the early bile salts petromyzonol sulfate and scymnol sulfate, 3-ketolithocholic acid, and the benzoate analog”.

For the compound `C[C@H](CCC(=O)O)[C@H]1CC[C@H]2[C@@H]3CC[C@@H]4CC(=O)CC[C@]4(C)[C@H]3CC[C@]12C` [3-ketolithocholic acid], the “luciferase reporter transactivation, HepG2-NTCP cells” value in data set [1] was “the early bile salts petromyzonol sulfate and scymnol sulfate, 3-ketolithocholic acid, and the benzoate analog”. In addition, in data set [2], the “efficacy relative to calcitriol” value stood at 15%.

On to `CC(=O)[C@H]1CC[C@H]2[C@@H]3CC=C4C[C@@H](O)CC[C@]4(C)[C@H]3CC[C@]12C` [pregnenolone], for which the “luciferase reporter transactivation, HepG2-NTCP cells” value in data set [1] is listed as “Human PXR is activated by micromolar concentrations of the steroid pregenonolone”. In addition, in data set [3], the “GAL4-LBD luciferase reporter transactivation, HepG2-NTCP cells” value was “zebrafish PXR is activated by pregnenolone, scymnol sulfate, and the benzoate analog”.

Consider `CCCOC(=O)c1ccc(O)cc1` [n-propyl-p-hydroxybenzoate], for which the “luciferase reporter transactivation, HepG2-NTCP cells” value in data set [1] is “the early bile salts petromyzonol sulfate and scymnol sulfate, 3-ketolithocholic acid, and the benzoate analog”. The “GAL4-LBD luciferase reporter transactivation, HepG2-NTCP cells” value in data set [4] was “n-propyl-p-hydroxybenzoate, which activates BXRα and BXRβ robustly”; in data set [3], “zebrafish PXR is activated by pregnenolone, scymnol sulfate, and the benzoate analog”.
